Reference: ChEMBL document CHEMBL5143570, “Development of naringenin-O-carbamate derivatives as multi-target-directed liagnds for the treatment of Alzheimer's disease” (Bioorg Med Chem Lett, 2022)

Key:
Butyrylcholinesterase = Butyrylcholinesterase (Rattus norvegicus, UniProt Q9JKC1); experiment: Inhibition of rat serum Butyrylcholine esterase using butyrylthiocholine as substrate incubated for 15 mins by DTNB reagent based Ellman's method; type: cell-free
[1] = Inhibition of LPS-induced NO production in mouse BV-2 cells at 10 uM by Griess reaction method relative to control; type: functional
HT-22 = experiment: Effect on tau protein expression in pRK5-GFP-Tau P301L plasmid transfected mouse HT-22 cells assessed as fluorescence intensity by measuring decrease in GFP level by western blot analysis; type: functional, cell-based; conditions: dose 5-20 µM, DDE = dose-dependent effect
PC-12 = experiment: Neuroprotective activity against H2O2-induced cytotoxicity in rat PC-12 cells assessed as increase in cell viability at 5 uM by MTT assay relative to control; type: functional
[2] = Effect on APP protein expression in pEGFP-N1-APP plasmid transfected mouse HT-22 cells assessed as decrease in fluorescence intensity at 20 uM incubated for 24 hrs by fluorescence microscopic analysis (reference value: 30.7); type: functional
[3] = Antioxidant activity assessed as trolox equivalent of ORAC radical scavenging activity by ORAC-FL assay; type: functional
[4] = Effect on tau protein expression in pRK5-GFP-Tau P301L plasmid transfected mouse HT-22 cells assessed as reduction in fluorescence intensity at 5 uM by fluorescence microscopic analysis (reference value: 35.0); type: functional
[5] = molecular target: Amyloid-beta precursor protein (Homo sapiens) (UniProt P05067); experiment: Disaggregation of Cu2+-induced amyloid beta (1 to 42) (unknown origin) aggregation at 25 uM by thioflavin-T fluorescence method relative to control
Chain of Amyloid-beta precursor protein (Homo sapiens) (P05067 whole entry): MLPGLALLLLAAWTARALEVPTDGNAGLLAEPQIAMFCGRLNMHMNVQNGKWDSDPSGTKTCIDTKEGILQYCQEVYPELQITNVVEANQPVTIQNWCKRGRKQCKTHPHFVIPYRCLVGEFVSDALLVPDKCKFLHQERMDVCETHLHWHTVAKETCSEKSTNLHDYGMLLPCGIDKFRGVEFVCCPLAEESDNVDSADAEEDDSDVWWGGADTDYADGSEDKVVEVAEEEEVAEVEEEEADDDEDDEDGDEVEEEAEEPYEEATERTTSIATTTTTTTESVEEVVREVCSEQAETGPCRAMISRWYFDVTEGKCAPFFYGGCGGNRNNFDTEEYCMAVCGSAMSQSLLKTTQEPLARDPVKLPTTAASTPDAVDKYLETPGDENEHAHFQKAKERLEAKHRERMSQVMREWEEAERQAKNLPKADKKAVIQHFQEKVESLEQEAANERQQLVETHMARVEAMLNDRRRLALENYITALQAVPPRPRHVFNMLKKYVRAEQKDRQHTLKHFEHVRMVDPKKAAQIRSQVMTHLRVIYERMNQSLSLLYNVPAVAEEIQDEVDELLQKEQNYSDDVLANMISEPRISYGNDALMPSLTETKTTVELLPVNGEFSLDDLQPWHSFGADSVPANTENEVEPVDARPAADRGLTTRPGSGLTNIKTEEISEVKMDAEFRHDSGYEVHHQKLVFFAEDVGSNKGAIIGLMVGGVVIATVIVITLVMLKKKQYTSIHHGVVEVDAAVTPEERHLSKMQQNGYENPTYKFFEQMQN

[6] = Inhibition of LPS-induced TNFalpha production in mouse BV-2 cells assessed as TNFalpha level at 10 uM by ELISA analysis; type: functional
[7] = molecular target: Amyloid-beta precursor protein (Homo sapiens) (UniProt P05067); experiment: Inhibition of amyloid beta (1 to 42 ) (unknown origin) self-induced aggregation at 25 uM by thioflavin-T fluorescence method relative to control
[8] = Inhibition of LPS-induced TNFalpha production in mouse BV-2 cells assessed as TNFalpha level at 5 uM by ELISA analysis relative to control; type: functional
[9] = Inhibition of LPS-induced NO production in mouse BV-2 cells at 5 uM by Griess reaction method relative to control; type: functional

Chain of Butyrylcholinesterase (Q9JKC1 whole entry): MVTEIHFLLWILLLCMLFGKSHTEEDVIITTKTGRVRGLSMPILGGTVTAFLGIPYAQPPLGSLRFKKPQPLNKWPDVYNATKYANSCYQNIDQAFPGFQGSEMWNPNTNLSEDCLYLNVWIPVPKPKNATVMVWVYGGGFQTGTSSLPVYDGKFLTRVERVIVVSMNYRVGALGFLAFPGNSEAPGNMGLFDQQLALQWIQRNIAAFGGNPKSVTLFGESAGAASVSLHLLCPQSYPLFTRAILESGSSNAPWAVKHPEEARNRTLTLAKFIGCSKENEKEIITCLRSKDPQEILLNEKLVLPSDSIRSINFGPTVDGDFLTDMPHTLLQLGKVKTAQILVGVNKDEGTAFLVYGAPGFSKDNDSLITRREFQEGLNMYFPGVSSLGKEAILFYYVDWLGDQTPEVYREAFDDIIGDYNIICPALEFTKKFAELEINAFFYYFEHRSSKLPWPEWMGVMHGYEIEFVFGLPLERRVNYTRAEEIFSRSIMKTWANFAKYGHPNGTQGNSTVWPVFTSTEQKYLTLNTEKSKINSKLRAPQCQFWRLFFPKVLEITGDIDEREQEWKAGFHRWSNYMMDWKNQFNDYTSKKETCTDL

CCN(C)C(=O)Oc1ccc(C2CC(=O)c3c(O)cc(OC(=O)N(C)CC)cc3O2)cc1 (configuration not stated)
IC50 (Butyrylcholinesterase): 30.6 µM | inhibition at 10 µM [1]: 55.6% | Activity (HT-22): Dde | Activity (PC-12): 63.8% | Flu intensity [2]: 15.5 | Activity [3]: 1 | Flu intensity [4]: 18.4 | Activity [5]: 54.4% | Activity [6]: 532 pg/mL | inhibition [7]: 60.9% | inhibition at 5 µM [8]: 50.1% | inhibition at 5 µM [9]: 41.7%
